Assay results from patent US9988430B2, “Stable GLP-1 based GLP-1/glucagon receptor co-agonists” (Novo Nordisk A/S, priority 2014, dated 2018).
*1 amine or outer side, *2 acyl side, *3 side chain or, on linkers, in order; H or OH if unused. Where a SMILES comes first, the peptide text is derived from it. Bridges are numbered along the chain shown (N, C = ends). Roman numbers before positions name the chains, in order. Side-chain parts run from the residue outwards. [ ]: non-standard residue; d: D form. The star is where a group is joined. C18 diacid = O=C(O)CCCCCCCCCCCCCCCCC(=O)*; γGlu = O=C(O)[C@H](CCC(=O)[*:2])N[*:1]; Desaminohistidyl = O=C(CCc1c[nH]cn1)*; Ac4c = NC1(C(=O)O)CCC1; AEEA = NCCOCCOCC(=O)O; Aib = CC(C)(N)C(=O)O

target: T1, human GLP-1 receptor (Homo sapiens, UniProt P43220); assay: Assay (II)(a): GLP-1 receptor binding, [125I]GLP-1 displacement, SPA on BHK membranes; settings: displacement of [125I]GLP-1, membranes with human GLP-1 receptor; read-out: IC50 GLP-1R
T1 construct: expressed in transfected cells; host or cells: membranes of BHK cells, parent line BHKTS13, clone FCW467-12A
T1 sequence (P43220 24-463): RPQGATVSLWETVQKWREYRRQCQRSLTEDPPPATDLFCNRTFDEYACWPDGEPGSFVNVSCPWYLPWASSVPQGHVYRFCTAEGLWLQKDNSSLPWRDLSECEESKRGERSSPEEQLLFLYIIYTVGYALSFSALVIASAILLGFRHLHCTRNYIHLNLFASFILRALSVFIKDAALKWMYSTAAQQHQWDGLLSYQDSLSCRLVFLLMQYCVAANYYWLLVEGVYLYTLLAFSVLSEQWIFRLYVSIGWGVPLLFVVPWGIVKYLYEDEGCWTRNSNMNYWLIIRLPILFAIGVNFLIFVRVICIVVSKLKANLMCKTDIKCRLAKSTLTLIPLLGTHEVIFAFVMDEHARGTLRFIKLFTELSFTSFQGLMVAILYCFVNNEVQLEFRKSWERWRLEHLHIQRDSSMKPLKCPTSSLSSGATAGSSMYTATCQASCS
In short: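 Membranes from BHK cells expressing human GLP-1 receptor with WGA SPA beads, [125I]GLP-1(7-36)NH2 (480 pM added solution) and compound in HEPES pH 7.4 buffer with EGTA, MgCl2, Tween 20. Incubated 2 h at 30° C; SPA counts fitted by non-linear regression to IC50 in nM.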

Compound	IC50
CC[C@H](C)[C@H](NC(=O)[C@H](Cc1ccccc1)NC(=O)[C@H](CCC(=O)O)NC(=O)[C@H](CCCNC(=N)N)NC(=O)[C@H](C)NC(=O)[C@H](C)NC(=O)[C@H](CCC(N)=O)NC(=O)[C@H](CCC(=O)O)NC(=O)[C@H](CCC(=O)O)NC(=O)[C@H](CC(C)C)NC(=O)[C@H](Cc1ccc(O)cc1)NC(=O)[C@H](CCCCN)NC(=O)[C@H](CO)NC(=O)[C@@H](NC(=O)[C@H](CC(=O)O)NC(=O)[C@H](CO)NC(=O)[C@@H](NC(=O)[C@H](Cc1ccccc1)NC(=O)[C@@H](NC(=O)CNC(=O)[C@H](Cc1c[nH]cn1)NC(=O)C(C)(C)NC(=O)CCc1c[nH]cn1)[C@@H](C)O)[C@@H](C)O)C(C)C)C(=O)N[C@@H](C)C(=O)N[C@@H](Cc1c[nH]c2ccccc12)C(=O)N[C@@H](CC(C)C)C(=O)N[C@@H](CC(C)C)C(=O)N[C@@H](CCCCNC(=O)COCCOCCNC(=O)COCCOCCNC(=O)CC[C@H](NC(=O)CCCCCCCCCCCCCCCCC(=O)O)C(=O)O)C(=O)N[C@H](C(N)=O)[C@@H](C)O [Example 12, N^ε34-[2-[2-[2-[[2-[2-[2-[[(4S)-4-carboxy-4-(17-carboxyheptadecanoylamino)butanoyl]amino]ethoxy]ethoxy]acetyl]amino]ethoxy]ethoxy]acetyl]-[Imp7,Aib8,His9,Lys18,Glu22,Arg26,Leu33,Thr35]-GLP-1-(7-35)-peptide amide] (Desaminohistidyl-[Aib]HGTFTSDVSKYLEEQAAREFIAWLLK([AEEA-AEEA-γGlu-C18 diacid])T-NH2)	0.7 nM
CC[C@H](C)[C@H](NC(=O)[C@H](Cc1ccccc1)NC(=O)[C@H](CCC(=O)O)NC(=O)[C@H](CCCNC(=N)N)NC(=O)[C@H](C)NC(=O)[C@H](C)NC(=O)[C@H](CCC(N)=O)NC(=O)[C@H](CCC(=O)O)NC(=O)[C@H](CCC(=O)O)NC(=O)[C@H](CC(C)C)NC(=O)[C@H](Cc1ccc(O)cc1)NC(=O)[C@H](CCCCN)NC(=O)[C@H](CO)NC(=O)[C@@H](NC(=O)[C@H](CC(=O)O)NC(=O)[C@H](CO)NC(=O)[C@@H](NC(=O)[C@H](Cc1ccccc1)NC(=O)[C@@H](NC(=O)CNC(=O)[C@H](Cc1c[nH]cn1)NC(=O)C(C)(C)NC(=O)CCc1c[nH]cn1)[C@@H](C)O)[C@@H](C)O)C(C)C)C(=O)N[C@@H](C)C(=O)N[C@@H](Cc1c[nH]c2ccccc12)C(=O)N[C@@H](CC(C)C)C(=O)N[C@@H](CC(C)C)C(=O)N[C@@H](CCCCNC(=O)COCCOCCNC(=O)COCCOCCNC(=O)CC[C@H](NC(=O)CC[C@H](NC(=O)CCCCCCCCCCCCCCCCC(=O)O)C(=O)O)C(=O)O)C(=O)N[C@H](C(N)=O)[C@@H](C)O [Example 5, N^ε34-[2-[2-[2-[[2-[2-[2-[[(4S)-4-carboxy-4-[[(4S)-4-carboxy-4-(17-carboxyheptadecanoylamino)butanoyl]amino]butanoyl]amino]ethoxy]ethoxy]acetyl]amino]ethoxy]ethoxy]acetyl]-[Imp7,Aib8,His9,Lys18,Glu22,Arg26,Leu33,Thr35]-GLP-1-(7-35)-peptide amide] (Desaminohistidyl-[Aib]HGTFTSDVSKYLEEQAAREFIAWLLK([AEEA-AEEA-γGlu-γGlu-C18 diacid])T-NH2)	0.5 nM
CC[C@H](C)[C@H](NC(=O)[C@H](Cc1ccccc1)NC(=O)[C@H](CCC(=O)O)NC(=O)[C@H](CCCNC(=N)N)NC(=O)[C@H](C)NC(=O)[C@H](C)NC(=O)[C@H](CCCNC(=N)N)NC(=O)CNC(=O)[C@H](CCC(=O)O)NC(=O)[C@H](CC(C)C)NC(=O)[C@H](Cc1ccc(O)cc1)NC(=O)[C@H](CCCCN)NC(=O)[C@H](CO)NC(=O)[C@@H](NC(=O)[C@H](CC(=O)O)NC(=O)[C@H](CO)NC(=O)[C@@H](NC(=O)[C@H](Cc1ccccc1)NC(=O)[C@@H](NC(=O)CNC(=O)[C@H](Cc1c[nH]cn1)NC(=O)C1(NC(=O)CCc2c[nH]cn2)CCC1)[C@@H](C)O)[C@@H](C)O)C(C)C)C(=O)N[C@@H](C)C(=O)N[C@@H](Cc1c[nH]c2ccccc12)C(=O)N[C@@H](CC(C)C)C(=O)N[C@@H](CC(C)C)C(=O)N[C@@H](CCCCNC(=O)CNC(=O)[C@H](CO)NC(=O)[C@H](CCC(=O)O)NC(=O)CNC(=O)[C@H](CO)NC(=O)CC[C@H](NC(=O)CC[C@H](NC(=O)CCCCCCCCCCCCCCCCC(=O)O)C(=O)O)C(=O)O)C(=O)N[C@H](C(N)=O)[C@@H](C)O [Example 20, N^ε34-[2-[[(2S)-2-[[(2S)-4-carboxy-2-[[2-[[(2S)-2-[[(4S)-4-carboxy-4-[[(4S)-4-carboxy-4-(17-carboxyheptadecanoylamino)butanoyl]amino]butanoyl]amino]-3-hydroxypropanoyl]amino]acetyl]amino]butanoyl]amino]-3-hydroxypropanoyl]amino]acetyl]-[Imp7,Acb8,His9,Lys18,Arg23,Arg26,Leu33,Thr35]-GLP-1-(7-35)-peptide amide] (I: Desaminohistidyl-[Ac4c]HGTFTSDVSKYLEGRAAREFIAWLLKT-NH2 / II: {C18 diacid-γGlu-γGlu}-SGESG; amide I:27-II:C)	0.3 nM
CC[C@H](C)[C@H](NC(=O)[C@H](Cc1ccccc1)NC(=O)[C@H](CCC(=O)O)NC(=O)[C@H](CCCNC(=N)N)NC(=O)[C@H](C)NC(=O)[C@H](C)NC(=O)[C@H](CCC(N)=O)NC(=O)[C@H](CCC(=O)O)NC(=O)[C@H](CCC(=O)O)NC(=O)[C@H](CC(C)C)NC(=O)[C@H](Cc1ccc(O)cc1)NC(=O)[C@H](CCCCN)NC(=O)[C@H](CO)NC(=O)[C@@H](NC(=O)[C@H](CC(=O)O)NC(=O)[C@H](CO)NC(=O)[C@@H](NC(=O)[C@H](Cc1ccccc1)NC(=O)[C@@H](NC(=O)CNC(=O)[C@H](Cc1c[nH]cn1)NC(=O)C(C)(C)NC(=O)CCc1c[nH]cn1)[C@@H](C)O)[C@@H](C)O)C(C)C)C(=O)N[C@@H](C)C(=O)N[C@@H](Cc1c[nH]c2ccccc12)C(=O)N[C@@H](CC(C)C)C(=O)N[C@@H](CC(C)C)C(=O)N[C@@H](CCCCNC(=O)CNC(=O)[C@H](CO)NC(=O)[C@H](CCC(=O)O)NC(=O)CNC(=O)[C@H](CO)NC(=O)CC[C@H](NC(=O)CC[C@H](NC(=O)CCCCCCCCCCCCCCCCC(=O)O)C(=O)O)C(=O)O)C(=O)N[C@H](C(N)=O)[C@@H](C)O [Example 3, N^ε34-[2-[[(2S)-2-[[(2S)-4-carboxy-2-[[2-[[(2S)-2-[[(4S)-4-carboxy-4-[[(4S)-4-carboxy-4-(17-carboxyheptadecanoylamino)butanoyl]amino]butanoyl]amino]-3-hydroxypropanoyl]amino]acetyl]amino]butanoyl]amino]-3-hydroxypropanoyl]amino]acetyl]-[Imp7,Aib8,His9,Lys18,Glu22,Arg26,Leu33,Thr35]-GLP-1-(7-35)-peptide amide] (I: Desaminohistidyl-[Aib]HGTFTSDVSKYLEEQAAREFIAWLLKT-NH2 / II: {C18 diacid-γGlu-γGlu}-SGESG; amide I:27-II:C)	0.4 nM
CC[C@H](C)[C@H](NC(=O)[C@H](Cc1ccccc1)NC(=O)[C@H](CCC(=O)O)NC(=O)[C@H](CCCNC(=N)N)NC(=O)[C@H](C)NC(=O)[C@H](C)NC(=O)[C@H](CCC(N)=O)NC(=O)[C@H](CCC(=O)O)NC(=O)[C@H](CCC(=O)O)NC(=O)[C@H](CC(C)C)NC(=O)[C@H](Cc1ccc(O)cc1)NC(=O)[C@H](CCCCN)NC(=O)[C@H](CO)NC(=O)[C@@H](NC(=O)[C@H](CC(=O)O)NC(=O)[C@H](CO)NC(=O)[C@@H](NC(=O)[C@H](Cc1ccccc1)NC(=O)[C@@H](NC(=O)CNC(=O)[C@H](Cc1c[nH]cn1)NC(=O)C(C)(C)NC(=O)CCc1c[nH]cn1)[C@@H](C)O)[C@@H](C)O)C(C)C)C(=O)N[C@@H](C)C(=O)N[C@@H](Cc1c[nH]c2ccccc12)C(=O)N[C@@H](CC(C)C)C(=O)N[C@@H](CC(C)C)C(=O)N[C@@H](CCCCNC(=O)CC[C@H](NC(=O)CC[C@H](NC(=O)CC[C@H](NC(=O)CC[C@H](NC(=O)CCCCCCCCCCCCCCCCC(=O)O)C(=O)O)C(=O)O)C(=O)O)C(=O)O)C(=O)N[C@H](C(N)=O)[C@@H](C)O [Example 6, N^ε34-[(4S)-4-carboxy-4-[[(4S)-4-carboxy-4-[[(4S)-4-carboxy-4-[[(4S)-4-carboxy-4-(17-carboxyheptadecanoylamino)butanoyl]amino]butanoyl]amino]butanoyl]amino]butanoyl]-[Imp7,Aib8,His9,Lys18,Glu22,Arg26,Leu33,Thr35]-GLP-1-(7-35)-peptide amide] (Desaminohistidyl-[Aib]HGTFTSDVSKYLEEQAAREFIAWLLK([γGlu-γGlu-γGlu-γGlu-C18 diacid])T-NH2)	0.3 nM
CC[C@H](C)[C@H](NC(=O)[C@H](Cc1ccccc1)NC(=O)[C@H](CCC(=O)O)NC(=O)[C@H](CCCNC(=N)N)NC(=O)[C@H](C)NC(=O)[C@H](C)NC(=O)[C@H](CCC(N)=O)NC(=O)[C@H](CCC(=O)O)NC(=O)[C@H](CCC(=O)O)NC(=O)[C@H](CC(C)C)NC(=O)[C@H](Cc1ccc(O)cc1)NC(=O)[C@H](CCCCN)NC(=O)[C@H](CO)NC(=O)[C@@H](NC(=O)[C@H](CC(=O)O)NC(=O)[C@H](CO)NC(=O)[C@@H](NC(=O)[C@H](Cc1ccccc1)NC(=O)[C@@H](NC(=O)CNC(=O)[C@H](Cc1c[nH]cn1)NC(=O)C(C)(C)NC(=O)CCc1c[nH]cn1)[C@@H](C)O)[C@@H](C)O)C(C)C)C(=O)N[C@@H](C)C(=O)N[C@@H](Cc1c[nH]c2ccccc12)C(=O)N[C@@H](CC(C)C)C(=O)N[C@@H](CC(C)C)C(=O)N[C@@H](CCCCNC(=O)CNC(=O)[C@H](CO)NC(=O)CC[C@H](NC(=O)CC[C@H](NC(=O)CCCCCCCCCCCCCCCCC(=O)O)C(=O)O)C(=O)O)C(=O)N[C@H](C(N)=O)[C@@H](C)O [Example 4, N^ε34-[2-[[(2S)-2-[[(4S)-4-carboxy-4-[[(4S)-4-carboxy-4-(17-carboxyheptadecanoylamino)butanoyl]amino]butanoyl]amino]-3-hydroxypropanoyl]amino]acetyl]-[Imp7,Aib8,His9,Lys18,Glu22,Arg26,Leu33,Thr35]-GLP-1-(7-35)-peptide amide] (Desaminohistidyl-[Aib]HGTFTSDVSKYLEEQAAREFIAWLLK([Gly-Ser-γGlu-γGlu-C18 diacid])T-NH2)	0.2 nM
